The results in this text go back to ChEMBL document CHEMBL3600379, “Radiosynthesis and preliminary PET evaluation of glycogen synthase kinase 3β (GSK-3β) inhibitors containing [(11)C]methylsulfanyl, [(11)C]methylsulfinyl or [(11)C]methylsulfonyl groups” (Bioorg Med Chem Lett, 2015).

Holding throughout (format): ADME, organism-based
The subject of data set [1] is Brain. Nature of the data set: Drug uptake in brain of cold water-induced mouse stress model at 15 to 20 MBq, iv measured at 2 mins by PET image analysis. As to conditions: in vivo; call rule not given here.
Data set [2] deals with Brain. Nature of the data set: Drug uptake in brain of normal mouse at 15 to 20 MBq, iv measured at 2 mins by PET image analysis. As to conditions: in vivo.
The test system of data set [3] is Brain. Nature of the data set: Drug uptake in brain of cold water-induced mouse stress model at 15 to 20 MBq, iv measured at 15 mins by PET image analysis. As to conditions: in vivo, 0.25 h.
Data set [4] deals with Brain. As to the kind of experiment: Drug uptake in brain of normal mouse at 15 to 20 MBq, iv measured at 15 mins by PET image analysis. Conditions: in vivo, 0.25 h.
Data set [5] has as its system Brain. As to the kind of experiment: Drug uptake in brain of cold water-induced mouse stress model at 15 to 20 MBq, iv measured at 30 mins by PET image analysis. Conditions: in vivo, 0.5 h.
For data set [6], the system named is Brain. Nature of the data set: Drug uptake in brain of normal mouse at 15 to 20 MBq, iv measured at 30 mins by PET image analysis. As to conditions: in vivo, 0.5 h.
The subject of data set [7] is Brain. Nature of the data set: Drug uptake in brain of cold water-induced mouse stress model at 15 to 20 MBq, iv measured over 60 mins by PET image analysis relative to normal mouse. As to conditions: in vivo, 1 h.

Take `Cc1nnc(-c2ccc3occ(-c4ccc(S[11CH3])cc4)c3c2)o1`: the SUV is 1.5 in the data set on Brain [1], 1 in the data set with Brain [2], 0.7 in the data set on Brain [3] and 0.3 in the data set with Brain [4]. Further, the Drug uptake entry in the data set with Brain [5] and with Brain [6] was “Not Active” throughout. Moreover, the “fold change (FC)” value in the data set on Brain [7] was found to be 2.

For the compound `Cc1nnc(-c2ccc3occ(-c4ccc([S+]([11CH3])[O-])cc4)c3c2)o1` (stereo not given), the SUV was 0.8 with Brain [1], 0.5 with Brain [2], 0.3 with Brain [3] and 0.3 in the data set with Brain [4]. The Drug uptake result with Brain [5] and in the data set with Brain [6] was “Not Active” throughout.

For `Cc1nnc(-c2ccc3occ(-c4ccc(S([11CH3])(=O)=O)cc4)c3c2)o1`, the SUV is on record as 1.6 in the data set with Brain [1], 0.7 with Brain [2], 0.4 in the data set on Brain [3] and 0.2 in the data set on Brain [4]. The Drug uptake entry with Brain [5] and in the data set with Brain [6] was “Not Active” in each case. Besides, in the data set with Brain [7], the “fold change (FC)” value was found to be 2.
